Measurements reported in paper PMC13185115, “Photovermellogens: Minimalistic Pyridinium-Based Acylhydrazones with Photoswitchable Basicity for Operation in Aqueous Media” (The Journal of Organic Chemistry, 2026).

Columns and labels:
[1] = pKa determination of E-P a-dH+ by UV-Vis titration; assay type: physicochemical; details: acidity constant of the cationic E form, water, 20 mM phosphate buffer, 298 K, triplicate
Text: (§1) With the photovermellogens synthesized and fully characterized, their acid–base properties were next investigated by UV–vis spectroscopy to determine whether the pH-responsiveness characteristic of parent vermellogens was retained. Indeed, P a–dH·Cl reproduced the archetypical absorption changes of vermellogens (Figures c and S130–S137, SI1). , In essence, the characteristic intense π–π* absorption bands of the cations undergo a considerable bathochromic shift upon deprotonation (Table ), as also confirmed by our quantum chemical calculations (Figure S2, S2), causing a notable color change from yellow to red. This pronounced shift allowed the estimation of pK a values for E-P a–dH^+ via UV–vis absorption titrations, which, as for other vermellogens, fall within the biologically relevant pH range (Figure c, Table and Figures S130–S137, SI1). Changes in the protonation state were also easily monitored by ^1H NMR spectroscopy, with the gain in electronic density translating in a substantial shielding of resonances of the corresponding conjugate bases E/Z-P a–d (Figure a). As already observed for E-P a–dH^+, the deprotonated species were also thermally stable in the absence of light.
4. Determination of pK a values for E-P a-dH+ by UV-Vis spectroscopy.
All the experiments were recorded on a Jasco V-650 spectrometer. […] Considering the previously reported behaviour of vermellogens,5 UV-Vis spectra were initially recorded in the 4-12 pH range, to qualitatively determine in each case the presence or absence of characteristic absorption bands for the acidic-basic forms of the compounds. From the qualitative data, UV-Vis titrations were recorded in the appropriate pH range for each […]
Figure S132. UV-Vis spectra of P bH·Cl at pH 5 (black) and pH 12 (red) at 20 µM. b) Linear relationship at pH 5 between absorbance at 378 nm and concentration of P bH·Cl (ε = 42265 ± 838 L·mol -1·cm-1). c) Linear relationship at pH 12 between absorbance at 456 nm and concentration of P bH·Cl (ε = 42143 ± 1044 L·mol -1·cm-1). […]
Figure S134. UV-Vis spectra of P cH·Cl at pH 6 (black) and pH 12 (red) at 14 µM. b) Linear relationship at pH 6 between absorbance at 350 nm and concentration of P cH·Cl (ε = 49266 ± 1780 L·mol-1·cm-1). c) Linear relationship at pH 12 between absorbance at 433 nm and concentration of P cH·Cl (ε = 46382 ± 1667 L·mol -1·cm-1). […]
Figure S136. UV-Vis spectra of P dH·Cl at pH 6 (red) and pH 13 (black) at 11 µM. b) Linear relationship at pH 6 between absorbance at 411 nm and concentration of P dH·Cl (ε = 65691 ± 2966 L·mol-1·cm-1). c) Linear relationship at pH 13 between absorbance at 500 nm and concentration of P dH·Cl (ε = 69154 ± 3100 L·mol -1·cm-1). […]

[2] = UV-vis absorption spectra in buffered water (λmax, molar absorption coefficient); assay type: physicochemical; details: for ε of the acidic form from absorbance vs concentration: P bH·Cl pH 5, 378 nm, P cH·Cl pH 6, 350 nm, P dH·Cl pH 6, 411 nm; for ε of the basic form from absorbance vs concentration: P bH·Cl pH 12, 456 nm, P cH·Cl pH 12, 433 nm, P dH·Cl pH 13, 500 nm; for λmax (E-P) / ε (E-P): conjugate base; for λmax (E-P) / λmax (E-PH^+) / λmax (Z-P) / λmax (Z-PH^+): maximum of the longest-wavelength absorption band; for λmax (E-P) / ε (E-P) / λmax (E-PH^+) / ε (E-PH^+) / λmax (Z-P) / ε (Z-P) / λmax (Z-PH^+) / ε (Z-PH^+): water; for ε (E-P) / ε (Z-P): molar absorption coefficient; for ε (E-P) / ε (E-PH^+) / ε (Z-P) / ε (Z-PH^+): error ± 5%; for ε (E-PH^+) / ε (Z-PH^+): molar absorption coefficient at λmax; for λmax (Z-P) / ε (Z-P): Z conjugate base
Text: as §1
Having confirmed the photochemical behavior of the protonated forms, we next explored their light-responsiveness in the deprotonated state. […] To probe whether Z-P a–c could nonetheless be generated indirectly, we explored a consecutive photoisomerization–deprotonation sequence. Thus, E-P a–cH^+ was first irradiated at 254 nm and pH 6 to enrich the Z population, followed by immediate adjustment of the solution to pH 13. Under these conditions, transient spectroscopic features were observed, consistent with the kinetic trapping of the metastable Z-P a–c species. […] These spectroscopic observations enabled the estimation of virtual pK a values for the Z-enriched solutions (Table and Figures S163–168, SI1), which confirmed the reduced acidity of the NH group in the Z-isomers, presumably arising from intramolecular hydrogen-bond formation.
Figure S132. UV-Vis spectra of P bH·Cl at pH 5 (black) and pH 12 (red) at 20 µM. b) Linear relationship at pH 5 between absorbance at 378 nm and concentration of P bH·Cl (ε = 42265 ± 838 L·mol -1·cm-1). c) Linear relationship at pH 12 between absorbance at 456 nm and concentration of P bH·Cl (ε = 42143 ± 1044 L·mol -1·cm-1).
Figure S133. UV-Vis spectra for the titration of P bH·Cl (20 μM in phosphate buffer solutions in the 4.1-10.6 pH range). b) Absorption of P bH+ at λ = 378 nm plotted against pH. c) Linear fitting […]
Figure S134. UV-Vis spectra of P cH·Cl at pH 6 (black) and pH 12 (red) at 14 µM. b) Linear relationship at pH 6 between absorbance at 350 nm and concentration of P cH·Cl (ε = 49266 ± 1780 L·mol-1·cm-1). c) Linear relationship at pH 12 between absorbance at 433 nm and concentration of P cH·Cl (ε = 46382 ± 1667 L·mol -1·cm-1).
Figure S135.UV-Vis spectra for the titration of P cH·Cl, (14 μM in phosphate buffer solutions in the 5.1-11.7 pH range). b) Absorption of P cH+ at λ = 351 nm plotted against pH. c) Linear fitting […]
Figure S136. UV-Vis spectra of P dH·Cl at pH 6 (red) and pH 13 (black) at 11 µM. b) Linear relationship at pH 6 between absorbance at 411 nm and concentration of P dH·Cl (ε = 65691 ± 2966 L·mol-1·cm-1). c) Linear relationship at pH 13 between absorbance at 500 nm and concentration of P dH·Cl (ε = 69154 ± 3100 L·mol -1·cm-1).
Figure S137. UV-Vis spectra for the titration of P dH·Cl (11 μM in phosphate buffer solutions in the 5.1-11.7 pH range). b) Absorption of P dH+ at λ = 410 nm plotted against pH. c) Linear fitting

| pK a (E-PH^+) [1] | ε of the acidic form from absorbance vs concentration [2] [L/mol/cm] | ε of the basic form from absorbance vs concentration [2] [L/mol/cm] | λmax (E-P) [2] [nm] | ε (E-P) [2] | λmax (E-PH^+) [2] [nm] | ε (E-PH^+) [2] | λmax (Z-P) [2] [nm] | ε (Z-P) [2] | λmax (Z-PH^+) [2] [nm] | ε (Z-PH^+) [2] | Structure (SMILES) |
| --- | --- | --- | --- | --- | --- | --- | --- | --- | --- | --- | --- |
| 11.2 ± 0.1 | 65691 ± 2966 | 69154 ± 3100 | 500 | 69,000 M^–1·cm^–1 | 411 | 66,000 M^–1·cm^–1 | – | – | – | – | C[n+]1ccc(-c2ccc(NN=CC(=O)c3ccccc3)cc2)cc1 [P dH^+] |
| 7.2 ± 0.1 | 42265 ± 838 | 42143 ± 1044 | 456 | 42,000 M^–1·cm^–1 | 378 | 42,000 M^–1·cm^–1 | 445 | 13,000 M^–1·cm^–1 | 384 | 36000 M^–1·cm^–1 | C[n+]1ccc(NN=CC(=O)c2ccccc2)c2ccccc21 [P bH^+] |
| 7.8 ± 0.1 | 49266 ± 1780 | 46382 ± 1667 | 432 | 46,000 M^–1·cm^–1 | 349 | 49,000 M^–1·cm^–1 | 420 | 15,000 M^–1·cm^–1 | 359 | 43,000 M^–1·cm^–1 | O=C(C=NNc1cc[n+](-c2ccccc2)cc1)c1ccccc1 [P cH^+] |
| 8.8 ± 0.2 | – | – | 429 | 39,000 M^–1·cm^–1 | 342 | 41,000 M^–1·cm^–1 | 420 | 18,000 M^–1·cm^–1 | 352 | 43,000 M^–1·cm^–1 | C[n+]1ccc(NN=CC(=O)c2ccccc2)cc1 [P aH^+] |
